Drawing on ChEMBL document CHEMBL1124854, “Porphyrin dimers as photosensitizers in photodynamic therapy” (1990), this text covers Tumor response for three compounds.

What all share (type): functional
The subject of assay [1] is Mus musculus. In words: In vivo photosensitizing activity against subcutaneously implanted SMT-F tumor in DBA/2 mice at the dose of 4.2mg/Kg, day 1-2.
For assay [2], the system named is Mus musculus. In words: In vivo photosensitizing activity against subcutaneously implanted SMT-F tumor in DBA/2 mice at the dose of 2.1mg/Kg, day 7.
The subject of assay [3] is Mus musculus. Kind of assay: In vivo photosensitizing activity against subcutaneously implanted SMT-F tumor in DBA/2 mice at the dose of 2.1mg/Kg, day 1-2.

As for `CNc1cc2[nH]c(cc3nc(cc4nc(ccc(CCC(=O)OC)c1C)C(CCC(=O)OC)=C4C)C(C)=C3C(C)O)c(C)c2C(C)OC(C)c1c(C)cc2[nH]c(cc3nc(cc4nc(cc(N)c1C)C(C(C)O)=C4C)C(C)=C3CCC(=O)OC)c(CCC(=O)OC)c2C` (centres undefined), in the assay on Mus musculus [1], the Tumor response is listed as 0%.

As for `C=CC1=C(C)c2cc3nc(ccc(CCC(=O)OC)c(C)c(NC)cc4[nH]c(cc1n2)c(C)c4C(C)OC(C)c1c(C)cc2[nH]c(cc4nc(cc5nc(cc(N)c1C)C(C(C)O)=C5C)C(C)=C4CCC(=O)OC)c(CCC(=O)OC)c2C)C(CCC(=O)OC)=C3C` (centres undefined), the Tumor response with Mus musculus [2] and in the assay on Mus musculus [3] was 100% each time.

`CNc1cc2[nH]c(cc3nc(cc4nc(ccc(CCC(=O)OC)c1C)C(CCC(=O)OC)=C4C)C(C)=C3C(C)O)c(C)c2C(C)OC(=O)CCC1=C(C)c2cc(C)c(C(C)O)c(C)c(N)cc3nc(cc4[nH]c(cc1n2)c(CCC(=O)OC)c4C)C(C)=C3C(C)O` (centres undefined): the Tumor response with Mus musculus [1] is listed as 0%.
